Consider nine compounds from PubChem BioAssay (NCI).

Some test systems named below: CCRF-CEM leukemia; HCT-116 colon; HT29 colon; IGROV1 ovarian; MDA-MB-231 breast; MDA-MB-435; OVCAR-3 ovarian; OVCAR-4 ovarian; SF-268 CNS; SNB-19 CNS.
Test in all cases: growth of human tumour cells (NCI), 48 h

“And” between values parts separate entries of the source, which are not always exact repeats. Equal values may be shown once.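 Tested at 5 concentrations; 48 h exposure; 96-well plates; endpoints linearly interpolated, else capped at highest concentration. GI50: concentration for 50% inhibition of growth. TGI: concentration producing complete growth inhibition.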 A value given as a limit tells only on which side of the number the result lay.

Turning to `CN1CC[C@@H](c2c(O)cc(O)c3c(=O)cc(-c4ccccc4Cl)oc23)[C@@H](O)C1`, the GI50 with CCRF-CEM leukemia was 38 nM and 41.2 nM; with HCT-116 colon it was 33.8 nM and 25.8 nM; in the assay on HT29 colon, 178 nM; in the assay with MDA-MB-231 breast, 168 nM; in the assay on MDA-MB-435 it was 88.6 nM and 74.4 nM; in the assay with OVCAR-3 ovarian, 63.6 nM and 37.5 nM and 25.6 nM. The GI50 is 170 nM in the assay on OVCAR-4 ovarian; 57.7 nM and 28.8 nM in the assay with SF-268 CNS; 103 nM in the assay with SNB-19 CNS. Further, the TGI is 27500 nM in the assay with HCT-116 colon; 24800 nM with HT29 colon; more than 100000 nM in the assay with IGROV1 ovarian; 613 nM and 2860 nM in the assay with MDA-MB-231 breast; 261 nM and 220 nM and 342 nM in the assay with MDA-MB-435; more than 19400 nM in the assay on OVCAR-3 ovarian. Further, the TGI in the assay with OVCAR-4 ovarian is 680 nM and 3610 nM; in the assay with SNB-19 CNS, more than 37300 nM.
As to `C=C1CC2(OC1=O)C(=O)N(CCCCCCCN1C(=O)C3(CC(=C)C(=O)O3)c3ccccc31)c1ccccc12` (stereo not drawn), the GI50 with CCRF-CEM leukemia was 896 nM; with HCT-116 colon, 1490 nM; in the assay on HT29 colon it was 1490 nM; in the assay on IGROV1 ovarian it was 966 nM; in the assay on MDA-MB-231 breast, 1180 nM; with MDA-MB-435, 1290 nM. The GI50 is 1270 nM with OVCAR-3 ovarian, 2010 nM with OVCAR-4 ovarian, 3970 nM with SF-268 CNS and 8520 nM in the assay on SNB-19 CNS. For the same compound, the TGI came to 6420 nM with CCRF-CEM leukemia; 5070 nM in the assay on HCT-116 colon; 5400 nM with HT29 colon; 2290 nM with IGROV1 ovarian; 3490 nM with MDA-MB-231 breast; 3920 nM with MDA-MB-435. In addition, the TGI in the assay on OVCAR-3 ovarian was 4070 nM; in the assay on OVCAR-4 ovarian, 7600 nM; in the assay with SF-268 CNS it was 12000 nM; in the assay with SNB-19 CNS it was 22000 nM.
Take `COc1cc([C@H]2c3cc4c(cc3O[C@@]3(O)COC(=O)[C@@H]23)OCO4)cc(OC)c1OC`: the TGI in the assay with CCRF-CEM leukemia, in the assay with HCT-116 colon, with HT29 colon, in the assay with IGROV1 ovarian, with MDA-MB-231 breast and in the assay on MDA-MB-435 was more than 100000 nM each time. Further, the TGI in the assay on OVCAR-3 ovarian, with OVCAR-4 ovarian, in the assay on SF-268 CNS and in the assay with SNB-19 CNS was more than 100000 nM each time.
As to `C=C1C(=O)O[C@H]2[C@H]1CC/C(COC(=O)c1cc3cc(F)ccc3[nH]1)=C\CC[C@@]1(C)O[C@@H]21`, the GI50 in the assay on CCRF-CEM leukemia was 919 nM; with HCT-116 colon, 1500 nM; in the assay on HT29 colon, 1130 nM; with IGROV1 ovarian, 1440 nM; in the assay with MDA-MB-231 breast, 1590 nM; in the assay with MDA-MB-435, 1500 nM. Besides, the GI50 with OVCAR-3 ovarian was 1200 nM; in the assay on OVCAR-4 ovarian, 1670 nM; in the assay on SF-268 CNS, 1620 nM; in the assay with SNB-19 CNS, 5040 nM. Further, the TGI in the assay with CCRF-CEM leukemia was determined as 6520 nM; in the assay on HCT-116 colon, 2960 nM; in the assay with HT29 colon it was 3140 nM; in the assay with IGROV1 ovarian it was 3140 nM; in the assay with MDA-MB-231 breast it was 3500 nM; with MDA-MB-435 it was 2960 nM. The TGI is 2660 nM in the assay with OVCAR-3 ovarian, 3920 nM with OVCAR-4 ovarian, 3300 nM in the assay with SF-268 CNS and 21000 nM in the assay with SNB-19 CNS.
For the compound `COc1ccc2nc(N/N=C(\C)c3ccccn3)cc(C)c2c1`, the GI50 was 67.9 nM in the assay with CCRF-CEM leukemia; 363 nM in the assay on HCT-116 colon; 116 nM in the assay on HT29 colon; 219 nM with IGROV1 ovarian; 232 nM with MDA-MB-231 breast; 408 nM in the assay on MDA-MB-435. Besides, the GI50 in the assay with OVCAR-3 ovarian was 65.2 nM; in the assay on OVCAR-4 ovarian, 156 nM; with SF-268 CNS it was 228 nM; with SNB-19 CNS, 382 nM. Further, the TGI turned out to be 400 nM in the assay on CCRF-CEM leukemia; 1130 nM with HCT-116 colon; 1050 nM in the assay with IGROV1 ovarian; 1870 nM in the assay on MDA-MB-231 breast; 1690 nM in the assay with MDA-MB-435; 215 nM in the assay on OVCAR-3 ovarian. Further, the TGI is 2570 nM with OVCAR-4 ovarian, 1460 nM in the assay on SF-268 CNS and 2120 nM with SNB-19 CNS.
For `C=CCn1c2c(c3ccccc3c1=O)C(=O)c1ccccc1-2`, the TGI in the assay with CCRF-CEM leukemia, with HCT-116 colon, in the assay with HT29 colon, in the assay with IGROV1 ovarian, in the assay on MDA-MB-231 breast and in the assay on MDA-MB-435 was more than 100000 nM throughout. In addition, the TGI in the assay on OVCAR-3 ovarian, in the assay with OVCAR-4 ovarian, with SF-268 CNS and in the assay on SNB-19 CNS was more than 100000 nM throughout.
`C[C@@H]1C[C@@H](O)[C@]2(O)O[C@@H]3C[C@@]4(C=O)[C@@H](CC[C@@H]5[C@@H]4CC[C@]4(C)[C@@H](C6=CC(=O)OC6)CC[C@]54O)C[C@H]3O[C@@H]2O1`: the GI50 is 5 nM in the assay with CCRF-CEM leukemia; 19.7 nM in the assay on HCT-116 colon; 53.4 nM and 14.1 nM in the assay on HT29 colon; 33 nM and 7.27 nM in the assay on IGROV1 ovarian; 24.1 nM with OVCAR-3 ovarian; 5.6 nM with OVCAR-4 ovarian. Besides, the GI50 in the assay on SF-268 CNS is 6.21 nM and 5 nM; in the assay with SNB-19 CNS it was 101 nM and 19.7 nM. Besides, the TGI was 39.1 nM and 22.3 nM with CCRF-CEM leukemia; 53.2 nM and 122 nM with HCT-116 colon; 73.4 nM and 198 nM and 74.5 nM with HT29 colon; 47.4 nM and 175 nM and 51.6 nM in the assay on IGROV1 ovarian; 236 nM with MDA-MB-231 breast; 157 nM in the assay with MDA-MB-435. In addition, the TGI in the assay with OVCAR-4 ovarian was 53.1 nM and 12.8 nM; with SF-268 CNS, 15.1 nM and 24.7 nM and 47.4 nM; with SNB-19 CNS, 145 nM and 217 nM and 184 nM.
`N#Cc1c(-c2nc3ccccc3s2)c(=O)oc2cc(O)ccc12`: the TGI in the assay with CCRF-CEM leukemia was more than 100000 nM; with HCT-116 colon, more than 100000 nM; with HT29 colon, more than 100000 nM; in the assay with IGROV1 ovarian, more than 100000 nM; in the assay on MDA-MB-231 breast, 82500 nM; with MDA-MB-435, more than 100000 nM. Moreover, the TGI in the assay on OVCAR-3 ovarian, with OVCAR-4 ovarian, with SF-268 CNS and with SNB-19 CNS was more than 100000 nM each time.
In the case of `O=[N+]([O-])C1C(c2ccccc2)C12c1ccccc1-c1ccccc12` (stereo not drawn), the GI50 is 318 nM in the assay on CCRF-CEM leukemia; 371 nM in the assay with HCT-116 colon; 349 nM in the assay on HT29 colon; 3410 nM in the assay with IGROV1 ovarian; 633 nM in the assay on MDA-MB-231 breast; 188 nM in the assay with MDA-MB-435. In addition, the GI50 was 783 nM with OVCAR-3 ovarian, 3560 nM in the assay on OVCAR-4 ovarian, 2300 nM in the assay with SF-268 CNS and 12400 nM in the assay on SNB-19 CNS. For the same compound, the TGI came out at 4220 nM in the assay on CCRF-CEM leukemia; 11600 nM with HCT-116 colon; 15500 nM in the assay on HT29 colon; 30100 nM with IGROV1 ovarian; 13500 nM in the assay on MDA-MB-231 breast; 454 nM in the assay with MDA-MB-435. Also, the TGI was 3590 nM with OVCAR-3 ovarian, more than 100000 nM in the assay with OVCAR-4 ovarian, 28000 nM with SF-268 CNS and more than 100000 nM with SNB-19 CNS.
